In experiment [1] the target is Protein-tyrosine kinase 6 (Homo sapiens) (UniProt Q13882). Kind of experiment: Inhibition of human recombinant BRK (174 to 734) at 5 nM by radiometric scintillation counting analysis relative to control.
Experiment [2] concerns the target Tyrosine-protein kinase CSK (Homo sapiens, UniProt P41240). The experiment can be described thus: Inhibition of human full length recombinant CSK at 5 nM by radiometric scintillation counting analysis relative to control.
Experiment [3] has as its target T1, Tyrosine-protein kinase Fgr (Homo sapiens, UniProt P09769). The experiment can be described thus: Inhibition of human recombinant FGR (456 to 770) at 5 nM by radiometric scintillation counting analysis relative to control.
For experiment [4], the target named is T2, Tyrosine-protein kinase Fyn (Homo sapiens, UniProt P06241). Kind of experiment: Inhibition of human recombinant Fyn (218 to end) at 5 nM incubated for 15 mins relative to control.
Experiment [5] has as its target T3, Tyrosine-protein kinase Lyn (Homo sapiens, UniProt P07948). The experiment can be described thus: Inhibition of human full length recombinant LYN at 5 nM by radiometric scintillation counting analysis relative to control.
In experiment [6] the target is T1, Tyrosine-protein kinase Fgr. The experiment can be described thus: Inhibition of human recombinant FGR (456 to 770) at 50 nM by radiometric scintillation counting analysis relative to control.
Experiment [7] deals with T2, Tyrosine-protein kinase Fyn. Kind of experiment: Inhibition of human recombinant Fyn (218 to end) at 50 nM incubated for 15 mins relative to control.
The target of experiment [8] is Tyrosine-protein kinase HCK (Homo sapiens, UniProt P08631). The experiment can be described thus: Inhibition of human recombinant HCK (230 to 497) at 50 nM by radiometric scintillation counting analysis relative to control.
Experiment [9] deals with Platelet-derived growth factor receptor beta (Homo sapiens) (UniProt P09619). The experiment can be described thus: Inhibition of human recombinant PDGFRbeta (557 to end) at 50 nM by radiometric scintillation counting analysis relative to control.
Experiment [10] concerns the target T4, Tyrosine-protein kinase Srms (Homo sapiens, UniProt Q9H3Y6). Kind of experiment: Inhibition of human SRMS at 50 nM by radiometric scintillation counting analysis relative to control.
Experiment [11] has as its target T5, Inhibitor of nuclear factor kappa-B kinase subunit alpha (Homo sapiens) (UniProt O15111).
T5 sequence (whole entry): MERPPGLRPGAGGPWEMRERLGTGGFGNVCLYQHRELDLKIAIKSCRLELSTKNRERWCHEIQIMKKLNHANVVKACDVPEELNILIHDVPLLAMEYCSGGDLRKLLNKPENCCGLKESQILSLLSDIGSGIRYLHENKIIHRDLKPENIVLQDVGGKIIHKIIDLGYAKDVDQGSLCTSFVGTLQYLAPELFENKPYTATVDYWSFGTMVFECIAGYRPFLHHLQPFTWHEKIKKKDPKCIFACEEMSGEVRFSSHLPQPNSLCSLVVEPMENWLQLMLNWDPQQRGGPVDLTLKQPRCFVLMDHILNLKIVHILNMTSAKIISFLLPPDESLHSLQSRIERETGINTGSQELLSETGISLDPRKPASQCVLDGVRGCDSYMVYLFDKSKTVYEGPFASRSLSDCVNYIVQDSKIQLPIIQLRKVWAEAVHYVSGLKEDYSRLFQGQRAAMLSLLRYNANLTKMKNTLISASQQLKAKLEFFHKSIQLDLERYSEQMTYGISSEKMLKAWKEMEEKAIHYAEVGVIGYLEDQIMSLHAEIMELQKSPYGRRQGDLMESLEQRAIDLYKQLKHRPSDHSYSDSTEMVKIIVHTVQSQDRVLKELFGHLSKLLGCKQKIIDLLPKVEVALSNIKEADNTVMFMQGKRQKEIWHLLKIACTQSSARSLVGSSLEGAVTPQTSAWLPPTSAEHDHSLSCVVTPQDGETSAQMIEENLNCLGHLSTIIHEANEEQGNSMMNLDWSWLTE
Kind of experiment: Inhibition of human full length recombinant IKKalpha at 500 nM by radiometric scintillation counting analysis relative to control.

Experiment [12] has as its target T6, Tyrosine-protein kinase ITK/TSK (Homo sapiens) (UniProt Q08881).
T6 sequence (whole entry): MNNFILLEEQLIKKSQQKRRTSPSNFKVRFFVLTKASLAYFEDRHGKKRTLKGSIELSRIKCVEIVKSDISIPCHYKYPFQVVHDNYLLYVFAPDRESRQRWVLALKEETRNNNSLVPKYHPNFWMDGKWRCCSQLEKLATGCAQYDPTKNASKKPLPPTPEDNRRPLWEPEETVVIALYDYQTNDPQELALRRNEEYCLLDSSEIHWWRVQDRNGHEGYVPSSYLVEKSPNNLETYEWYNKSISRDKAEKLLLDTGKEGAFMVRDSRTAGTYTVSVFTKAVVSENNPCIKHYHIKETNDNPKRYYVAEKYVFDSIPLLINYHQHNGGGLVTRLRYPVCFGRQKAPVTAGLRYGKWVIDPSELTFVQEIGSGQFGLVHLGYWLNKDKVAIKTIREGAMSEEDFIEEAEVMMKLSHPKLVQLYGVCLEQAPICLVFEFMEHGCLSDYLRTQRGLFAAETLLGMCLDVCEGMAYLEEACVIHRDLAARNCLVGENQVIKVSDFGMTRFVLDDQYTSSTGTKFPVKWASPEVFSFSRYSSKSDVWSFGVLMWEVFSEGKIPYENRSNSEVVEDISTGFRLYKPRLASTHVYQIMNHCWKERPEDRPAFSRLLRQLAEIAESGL
Kind of experiment: Inhibition of human recombinant ITK (352 to 617) at 500 nM by radiometric scintillation counting analysis relative to control.

Experiment [13] deals with Tyrosine-protein kinase Lck (Homo sapiens, UniProt P06239). The experiment can be described thus: Inhibition of human full length recombinant LCK at 500 nM by radiometric scintillation counting analysis relative to control.
Experiment [14] deals with T3, Tyrosine-protein kinase Lyn. The experiment can be described thus: Inhibition of human full length recombinant LYN at 500 nM by radiometric scintillation counting analysis relative to control.
For experiment [15], the target named is Platelet-derived growth factor receptor alpha (Homo sapiens) (UniProt P16234). Kind of experiment: Inhibition of human recombinant PDGFRalpha (550 to end) at 500 nM by radiometric scintillation counting analysis relative to control.
For experiment [16], the target named is T4, Tyrosine-protein kinase Srms. The experiment can be described thus: Inhibition of human SRMS at 500 nM by radiometric scintillation counting analysis relative to control.
Experiment [17] has as its target RAC-alpha serine/threonine-protein kinase (Homo sapiens) (UniProt P31749). The experiment can be described thus: Inhibition of human recombinant PKBalpha at 50 nM radiometric scintillation counting analysis relative to control.

T2 sequence (P06241 2-537 limits assumed): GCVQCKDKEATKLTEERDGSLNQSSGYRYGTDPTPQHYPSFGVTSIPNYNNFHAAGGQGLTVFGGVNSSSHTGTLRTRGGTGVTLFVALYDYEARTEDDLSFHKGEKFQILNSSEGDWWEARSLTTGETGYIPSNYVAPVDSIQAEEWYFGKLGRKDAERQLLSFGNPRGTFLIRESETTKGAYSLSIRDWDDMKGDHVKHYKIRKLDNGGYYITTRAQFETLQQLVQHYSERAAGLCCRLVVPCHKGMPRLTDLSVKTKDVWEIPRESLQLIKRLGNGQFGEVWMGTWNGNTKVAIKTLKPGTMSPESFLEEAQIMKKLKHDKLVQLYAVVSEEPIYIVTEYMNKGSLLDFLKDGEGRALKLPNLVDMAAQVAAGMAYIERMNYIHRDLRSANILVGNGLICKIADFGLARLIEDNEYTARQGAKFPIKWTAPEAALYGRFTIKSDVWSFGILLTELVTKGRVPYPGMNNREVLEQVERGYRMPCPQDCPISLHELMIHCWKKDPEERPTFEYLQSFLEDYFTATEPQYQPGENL
RAC-alpha serine/threonine-protein kinase (Homo sapiens), sequence (P31749 whole entry): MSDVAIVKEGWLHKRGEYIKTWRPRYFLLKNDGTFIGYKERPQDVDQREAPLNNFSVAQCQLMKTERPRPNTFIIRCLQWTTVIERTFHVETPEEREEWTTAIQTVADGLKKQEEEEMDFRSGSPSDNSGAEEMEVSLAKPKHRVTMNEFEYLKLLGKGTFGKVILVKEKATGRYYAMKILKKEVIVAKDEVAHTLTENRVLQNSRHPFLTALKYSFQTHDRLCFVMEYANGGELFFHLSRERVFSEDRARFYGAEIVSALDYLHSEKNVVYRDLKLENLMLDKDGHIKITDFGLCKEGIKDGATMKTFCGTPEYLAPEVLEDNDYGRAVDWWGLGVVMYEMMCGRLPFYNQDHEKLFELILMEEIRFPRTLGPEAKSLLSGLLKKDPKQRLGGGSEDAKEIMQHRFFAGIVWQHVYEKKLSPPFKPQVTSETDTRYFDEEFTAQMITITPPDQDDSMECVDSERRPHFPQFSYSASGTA
T1 sequence (P09769 2-529 limits assumed): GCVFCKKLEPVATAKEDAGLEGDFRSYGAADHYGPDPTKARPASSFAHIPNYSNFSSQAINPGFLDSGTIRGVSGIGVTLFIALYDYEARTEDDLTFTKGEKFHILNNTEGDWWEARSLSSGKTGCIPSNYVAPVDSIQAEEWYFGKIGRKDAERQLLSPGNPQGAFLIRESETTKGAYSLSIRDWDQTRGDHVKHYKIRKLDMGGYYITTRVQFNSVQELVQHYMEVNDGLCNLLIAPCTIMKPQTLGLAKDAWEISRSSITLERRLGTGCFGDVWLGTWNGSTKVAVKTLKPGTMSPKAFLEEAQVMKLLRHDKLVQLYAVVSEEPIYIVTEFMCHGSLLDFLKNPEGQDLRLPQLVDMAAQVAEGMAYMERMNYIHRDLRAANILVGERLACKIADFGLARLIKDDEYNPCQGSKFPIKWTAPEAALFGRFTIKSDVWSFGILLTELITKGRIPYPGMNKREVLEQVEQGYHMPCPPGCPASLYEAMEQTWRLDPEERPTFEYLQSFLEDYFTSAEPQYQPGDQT
Platelet-derived growth factor receptor alpha (Homo sapiens), sequence (P16234 whole entry): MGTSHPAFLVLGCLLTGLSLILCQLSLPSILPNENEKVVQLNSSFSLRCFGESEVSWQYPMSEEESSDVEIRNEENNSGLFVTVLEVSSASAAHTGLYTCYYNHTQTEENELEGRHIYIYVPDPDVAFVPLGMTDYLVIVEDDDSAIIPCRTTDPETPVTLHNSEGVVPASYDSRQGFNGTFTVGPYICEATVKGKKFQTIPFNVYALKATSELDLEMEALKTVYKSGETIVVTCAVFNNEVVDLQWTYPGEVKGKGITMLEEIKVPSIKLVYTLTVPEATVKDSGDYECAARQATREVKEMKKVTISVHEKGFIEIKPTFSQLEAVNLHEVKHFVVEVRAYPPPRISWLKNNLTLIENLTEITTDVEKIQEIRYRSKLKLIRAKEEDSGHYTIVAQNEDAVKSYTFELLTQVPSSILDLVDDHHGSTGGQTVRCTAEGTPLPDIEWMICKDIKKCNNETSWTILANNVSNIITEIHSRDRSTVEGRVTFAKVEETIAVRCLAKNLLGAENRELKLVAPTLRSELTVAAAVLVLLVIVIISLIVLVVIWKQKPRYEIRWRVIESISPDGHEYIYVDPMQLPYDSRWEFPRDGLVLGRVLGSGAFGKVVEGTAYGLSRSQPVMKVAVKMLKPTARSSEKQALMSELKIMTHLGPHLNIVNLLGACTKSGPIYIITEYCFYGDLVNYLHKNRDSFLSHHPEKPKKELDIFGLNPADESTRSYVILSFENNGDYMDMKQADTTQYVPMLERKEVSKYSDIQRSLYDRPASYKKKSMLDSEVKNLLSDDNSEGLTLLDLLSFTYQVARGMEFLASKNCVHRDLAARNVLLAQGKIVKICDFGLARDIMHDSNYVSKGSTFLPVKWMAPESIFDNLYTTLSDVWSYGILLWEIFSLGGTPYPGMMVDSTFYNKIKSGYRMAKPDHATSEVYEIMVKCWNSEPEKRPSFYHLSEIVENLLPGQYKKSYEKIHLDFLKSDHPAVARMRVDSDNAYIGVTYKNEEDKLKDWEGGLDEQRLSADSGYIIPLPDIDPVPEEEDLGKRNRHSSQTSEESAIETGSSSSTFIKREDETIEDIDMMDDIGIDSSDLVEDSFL
Tyrosine-protein kinase CSK, sequence (P41240 2-450 limits assumed): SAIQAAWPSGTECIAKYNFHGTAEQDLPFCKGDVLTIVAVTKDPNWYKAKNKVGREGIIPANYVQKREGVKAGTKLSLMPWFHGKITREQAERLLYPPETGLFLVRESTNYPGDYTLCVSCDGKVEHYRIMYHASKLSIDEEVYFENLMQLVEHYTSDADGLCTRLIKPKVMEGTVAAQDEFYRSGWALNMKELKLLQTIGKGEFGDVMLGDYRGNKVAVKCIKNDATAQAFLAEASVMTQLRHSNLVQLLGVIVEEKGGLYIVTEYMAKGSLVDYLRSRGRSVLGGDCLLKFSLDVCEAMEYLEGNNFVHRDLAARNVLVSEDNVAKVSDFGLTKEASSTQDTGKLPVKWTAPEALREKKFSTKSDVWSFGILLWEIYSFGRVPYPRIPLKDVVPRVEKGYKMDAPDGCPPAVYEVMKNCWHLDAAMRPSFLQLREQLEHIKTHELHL
T4 sequence (Q9H3Y6 whole entry): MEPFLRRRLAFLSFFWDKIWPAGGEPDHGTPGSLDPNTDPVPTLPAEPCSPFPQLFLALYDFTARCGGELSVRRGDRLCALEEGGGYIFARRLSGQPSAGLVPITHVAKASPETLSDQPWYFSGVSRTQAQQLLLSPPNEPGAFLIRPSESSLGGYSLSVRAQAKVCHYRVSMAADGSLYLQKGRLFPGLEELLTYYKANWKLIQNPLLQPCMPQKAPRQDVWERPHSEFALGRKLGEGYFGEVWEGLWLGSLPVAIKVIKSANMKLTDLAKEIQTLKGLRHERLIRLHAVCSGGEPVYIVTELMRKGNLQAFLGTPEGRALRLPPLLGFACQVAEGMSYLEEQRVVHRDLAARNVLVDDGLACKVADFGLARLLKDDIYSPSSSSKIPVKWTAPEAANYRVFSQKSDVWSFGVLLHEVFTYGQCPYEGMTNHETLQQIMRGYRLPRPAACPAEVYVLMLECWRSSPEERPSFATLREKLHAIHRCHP
Tyrosine-protein kinase HCK, sequence (P08631 2-526 limits assumed): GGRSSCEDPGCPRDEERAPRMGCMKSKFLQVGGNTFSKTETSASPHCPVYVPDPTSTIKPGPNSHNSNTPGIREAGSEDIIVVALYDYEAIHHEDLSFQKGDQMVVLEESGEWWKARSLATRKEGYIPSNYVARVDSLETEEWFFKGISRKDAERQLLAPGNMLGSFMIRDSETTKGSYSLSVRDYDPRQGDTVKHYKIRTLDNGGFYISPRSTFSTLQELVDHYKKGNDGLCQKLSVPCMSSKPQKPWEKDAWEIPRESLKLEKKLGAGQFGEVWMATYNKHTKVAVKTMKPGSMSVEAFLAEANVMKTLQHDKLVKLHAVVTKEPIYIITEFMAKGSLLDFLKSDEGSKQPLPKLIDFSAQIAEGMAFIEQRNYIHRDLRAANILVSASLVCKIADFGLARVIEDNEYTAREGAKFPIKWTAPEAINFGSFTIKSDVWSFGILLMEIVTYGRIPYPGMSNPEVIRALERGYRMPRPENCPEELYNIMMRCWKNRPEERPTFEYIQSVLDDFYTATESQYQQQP
Tyrosine-protein kinase Lck, sequence (P06239 2-509 limits assumed): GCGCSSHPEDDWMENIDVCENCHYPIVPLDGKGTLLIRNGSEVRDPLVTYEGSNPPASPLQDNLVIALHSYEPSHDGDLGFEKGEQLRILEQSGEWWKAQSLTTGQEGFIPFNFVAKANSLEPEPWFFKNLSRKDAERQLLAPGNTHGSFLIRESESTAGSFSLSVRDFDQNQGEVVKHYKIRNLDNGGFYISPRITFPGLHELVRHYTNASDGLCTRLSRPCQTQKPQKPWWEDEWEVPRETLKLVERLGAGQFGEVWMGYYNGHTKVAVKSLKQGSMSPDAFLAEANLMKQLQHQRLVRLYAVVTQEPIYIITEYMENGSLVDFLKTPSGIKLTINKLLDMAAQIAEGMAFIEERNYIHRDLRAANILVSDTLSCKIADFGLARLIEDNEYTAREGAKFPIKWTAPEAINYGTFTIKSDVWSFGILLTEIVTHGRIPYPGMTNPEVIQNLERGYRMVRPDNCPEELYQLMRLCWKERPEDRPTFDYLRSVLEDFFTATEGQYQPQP

In general, inhibition refers to the drop in the measured response relative to a control, in per cent. In the case of `Cc1ccc(C(=O)Nc2ccc(OC(F)(F)F)cc2)cc1C#Cc1cc(-c2cnn(C)c2)cnc1N`, the inhibition in experiment [1] is 17%; in [2] it was 2%; in experiment [3], 9%; in [4] it was 21%; in [5] it was 96%; in experiment [6], 34%. For the same molecule, the inhibition is 81% in experiment [7]; 92% in experiment [8]; 13% in [9]; 22% in [10]; 0% in experiment [11]; -4% in experiment [12]. Besides, the inhibition in experiment [13] is 98%; in experiment [14], 99%; in [15], 82%; in experiment [16] it was 54%; in experiment [17] it was 2%.

As to `Cc1ccc(C(=O)Nc2cc(C(F)(F)F)cc(C(F)(F)F)c2)cc1C#Cc1cc(-c2cnn(C)c2)cnc1N`, the inhibition in experiment [1] is -2%; in [2] it was 22%; in experiment [3], 27%; in [4] it was 29%; in experiment [5] it was 41%; in [6], 71%. The inhibition in [7] amounted to 55%; in [8], 92%; in experiment [9] it was 6%; in experiment [10] it was 51%; in experiment [11], 12%; in [12], 2%. The inhibition in experiment [13] was found to be 77%; in experiment [14] it was 96%; in [15], 18%; in experiment [16], 86%; in experiment [17], 2%.

With `Cc1ccc(C(=O)Nc2ccc(Cl)cc2Cl)cc1C#Cc1cc(-c2cnn(C)c2)cnc1N`, the inhibition came out at 9% in experiment [1]; 22% in experiment [2]; 4% in experiment [3]; 2% in experiment [4]; 19% in [5]; 20% in experiment [6]. For the same molecule, the inhibition in experiment [7] was found to be 43%; in experiment [8], 64%; in experiment [9], 54%; in experiment [10] it was 19%; in [11], 2%; in [12], 19%. Moreover, the inhibition in experiment [13] stood at 92%; in experiment [14], 105%; in [15], 94%; in experiment [16], 13%; in [17] it was 7%.

The values above are taken from ChEMBL document CHEMBL4837249, “Discovery of Potent Antiallergic Agents Based on an o-Aminopyridinyl Alkynyl Scaffold” (J Med Chem, 2021).
